{
  "source": "patent US5646261A",
  "about": "“3'-derivatized oligonucleotide analogs with non-nucleotidic groupings, their preparation and use” (Hoechst Aktiengesellschaft, priority 1992, dated 1997)",
  "key": {"HSV-1": {"system": "HSV-1", "assay": "Inhibition of HSV-1 viral replication in cell culture", "format": "cell-based, herpes simplex virus type 1"}, "[1]": {"system": "E1b (SP1 binding region of adenovirus E1b)", "assay": "Inhibition of transcription of E1b", "conditions": "as sense oligonucleotide, simulates the SP1 binding region"}},
  "note": "{Psoralen} = psoralen conjugate attached via phosphate",
  "data": [
    {"substance": "d(p-Nitrophenylethyl-2-oxy-pC(5'5'p)GpTpCpCpApTpGpTpCpGpGpCpApApApCpApGpCpTp-O-i-C3 H7) (DNA NNTCCATGTCGGCAAACAGCN; chemistry not fully specified) [IA-2]", "values": [
      {"measurement": "inhibition of HSV-1 replication", "setting": "HSV-1; cell culture, sequence I directed against mRNA of transactivator protein Vmw65, sequences II and III against splice-acceptor region of IE4/5 precursor mRNA", "value": "inhibit HSV-1 replication"}
    ]},
    {"substance": "\"psoralen\"-pGpGpTpGpTpTpTpGpGpGpGpGpTpTpGpG(5'5'S)GpTpTpGpGpGpGpT2pTpGpTpGpTpGp-\"psoralen\") (chain 1 NGTTGGGGGTTTGTGN; chain 2 NTTGGGGTTGTGTN; 3' {Psoralen}, sugars by position, backbone and the base at N not given here; two pieces joined 5'-5' through S linker) [IA-4, oligonucleotide modified with psoralen at both 3'-ends]", "values": [
      {"measurement": "inhibition of HSV-1 replication by triplex formation", "setting": "HSV-1; target: origin of replication (oriL) of the HSV-1 genome", "value": "inhibits replication of the latter by triplex formation"}
    ]},
    {"substance": "d(GpGpGpCpGpGpGpGpCpTpTpApApApGpG(3'5'S)CpCpTpTpTpApApGpCpCpCpCpGpCpCpCp-O- -(CH2 CH2 O)8 (CH2)13 CH3) (DNA GGGCGGGGCTTAAAGNNCTTTAAGCCCCGCCN; chemistry not fully specified) [IB-2, 3'-modified oligonucleotide analog with a 3'5'-spacer]", "values": [
      {"measurement": "inhibition of transcription of E1b", "setting": "[1]", "value": "inhibits the transcription of E1b"}
    ]}
  ]
}
